Experimental data as given in patent US20200163984A1, “USE OF ISOVALERYL SPIRAMYCIN I, II AND/OR III IN MANUFACTURING MEDICAMENT FOR TREATING AND/OR PREVENTING TUMOR, AND MEDICAMENT” (SHENYANG FUYANG PHARMACEUTICAL TECHNOLOGY CO., LTD., priority 2017, published 2020).

Columns and labels:
[1] = test system: transplanted tumor of human gastric adenocarcinoma cell SGC7901; assay: SGC7901 transplanted tumor in nude mice; details: for tumor volume and relative tumor volume compared with the model group: low, medium and high doses, P<0.05; for mouse weight compared with the model group: in vivo
Protocol: Then cell concentration was adjusted to 1×10^7/ml with matrigel, then each nude mouse was inoculated subcutaneously with 0.2 ml of cells at its right armpit and recorded as the first day of inoculation. When the tumor grows to be greater than or equal to 100 mm^3, the mice were randomly divided into 11 groups with 6 mice in each group: a model group, a cyclophosphamide group, isovaleryl spiramycin I groups with doses of 25, 50 and 100 mg/kg, isovaleryl spiramycin II groups with doses of 25, 50 and 100 mg/kg, and isovaleryl spiramycin III groups with doses of 25, 50 and 100 mg/kg. Each group was continuously administered intragastrically for 30 days with a dose of 20 ml/kg. The mice were sacrificed the next day after drug withdrawal and the indicators were tested. The long diameter and short diameter of the tumor, and the body weight of each mouse were recorded every 3 days from drug administration to nude mouse sacrifice.
The body weight of the nude mice and the long diameter (a) and short diameter (b) of the transplanted tumor were measured every 3 days, and the tumor volume (v), relative tumor volume (RTV) and relative tumor proliferation rate (T/C) are calculated respectively according to the following formulas, wherein V=a×b^2/2; RTV=V/V0 (V0 is the tumor volume before administration, V is the tumor volume before sacrifice), and T/C (%)=treatment group RTV/model control group RTV×100%.
Each mouse was weighed and sacrificed. After the tumor was completely stripped off from the body of the mouse, the non-tumor tissues such as blood stains and fat were removed to weigh the tumor and calculate the tumor growth inhibition rate. The average tumor weight of each group of mice is used as an indicator of efficacy. Tumor growth inhibition rate (%)=(1−the average tumor weight of the treatment group/the average tumor weight of the model group)×100%.

[2] = test system: NK cell activity of spleen cells against K562 cells; assay: Natural killer (NK) cell activity of Lewis lung cancer tumor-bearing mice; type: in vivo, C57BL/6 mouse
Protocol: In the Lewis lung cancer model, the mice inoculated with the tumor were randomly divided into groups with 10 mice in each group the next day of inoculation. The groups included: a model control group, a positive drug cyclophosphamide control group (CTX, 30 mg/kg), isovaleryl spiramycin I groups with doses of 13, 26 and 52 mg/kg; isovaleryl spiramycin II groups with doses of 13, 26 and 52 mg/kg; isovaleryl spiramycin III groups with doses of 13, 26 and 52 mg/kg. Each group was continuously administered intragastrically for 15 days with a dose of 20 ml/kg.
The serum-free RPMI 1640 medium was placed in a dish, and then the dish was placed on ice. The spleen was aseptically taken and gently ground with a sterile glass slide to prepare a single cell suspension. The single cell suspension was filtered with a double-layer sterile gauze, washed twice with serum-free RPMI1640 medium, and centrifuged at 1,500 rpm for 5 min to remove the obtained supernatant. 2 mL of red blood cell lysate was added to the treated suspension, the mixture was allowed to stand for 2 min, and then 8 mL of RPMI 1640 medium was added, centrifuging was performed at 1,500 rpm for 5 min to remove the obtained supernatant, and then washing was performed twice with the RPMI 1640 medium. […] A single cell suspension was prepared by using a RPMI 1640 medium containing 10% fetal bovine serum.
The spleen cell suspension was taken, and the cell density was adjusted to 1×10^7/mL (effector cells). A suspension of K562 cells was prepared with a cell density of 1×10^5/mL (target cells). Each mouse was set with: A. effector cells:target cell well (quantity ratio 20:1) to which […] of spleen cell suspension and 100 μL of K562 cell suspension were added; B. an effector cell control well to which 100 μL of spleen cell suspension and 100 μL of RPMI 1640 medium were added; and C. a target cell control well to which 100 μL of K562 cell suspension and 100 μL of RPMI 1640 medium were added. The above cells were added to a 96-well plate. After the 96-well plate was transferred to a saturated humidity condition with a volume fraction of 5% CO2 at 37° C. for incubation for 22 h, 10 μL of MTT solution (5 g/L) was added to each well, and incubation was continued to be performed for 4 hours under the same conditions, then the culture was terminated. 100 μl of a triple solution (SDS 10 g, 10M HCl 0.1 mL, isobutanol 5 mL, diluted with distilled water to 100 mL) was added, and the plate was shaken for 10 min to fully dissolve the crystals, and the Optical Density (OD) of each well at 490 nm was measured, and the NK cell activity was calculated. NK cell activity (%)=[TO−(S−E)]/TO×100%, wherein TO is the Optical Density of the target cell control well, S is the Optical Density of the effector cell control well, and E is the Optical Density of the effector cell.

[3] = SGC7901, 12.5 mg/kg (low dose) i.g. 30 days
[4] = SGC7901, 25 mg/kg (medium dose) i.g. 30 days
[5] = SGC7901, 50 mg/kg (high dose) i.g. 30 days

| SMILES | Inhibition Rate (tumor growth inhibition rate) [1, 3] [%] | Relative Tumor Proliferation Rate (T/C) [1, 3] [%] | Relative Tumor Volume (RTV) [1, 3] | Tumor Volume (d 1) [1, 3] [mm3] | Tumor Volume (d 30) [1, 3] [mm3] | Tumor Weight [1, 3] [g] | Inhibition Rate (tumor growth inhibition rate) [1, 4] [%] | Relative Tumor Proliferation Rate (T/C) [1, 4] [%] | Relative Tumor Volume (RTV) [1, 4] | Tumor Volume (d 1) [1, 4] [mm3] | Tumor Volume (d 30) [1, 4] [mm3] | Tumor Weight [1, 4] [g] | Inhibition Rate (tumor growth inhibition rate) [1, 5] [%] | Relative Tumor Proliferation Rate (T/C) [1, 5] [%] | Relative Tumor Volume (RTV) [1, 5] | Tumor Volume (d 1) [1, 5] [mm3] | Tumor Volume (d 30) [1, 5] [mm3] | Tumor Weight [1, 5] [g] | tumor volume and relative tumor volume compared with the model group ([1]; SGC7901) | NK Cell Activity ([2]; 26 mg/kg) [%] | also measured |
| --- | --- | --- | --- | --- | --- | --- | --- | --- | --- | --- | --- | --- | --- | --- | --- | --- | --- | --- | --- | --- | --- |
| COC1C(OC(C)=O)CC(=O)OC(C)CC=CC=CC(OC2CCC(N(C)C)C(C)O2)C(C)CC(CC=O)C1OC1OC(C)C(OC2CC(C)(O)C(OC(=O)CC(C)C)C(C)O2)C(N(C)C)C1O (stereo not shown) [Isovaleryl spiramycin II, isovaleryl spiramycin II] | 24.44 | 70.48 | 7.90 ± 6.97 | 134.33 ± 57.77 | 1029.72 ± 818.01 | 1.19 ± 0.62 | 41.76 | 51.42 | 6.88 ± 5.66 | 195.76 ± 76.95 | 1094.82 ± 687.01 | 0.91 ± 0.53 | 70.24 | 36.95 | 6.90 ± 7.37 | 143.85 ± 16.25 | 577.98 ± 411.47 | 0.47 ± 0.42 | significantly lower | 47.0 ± 5.5 | mouse weight compared with the model group [1]: no significant changes; NK Cell Activity ([2]; 13 mg/kg): 47.2 ± 9.2%; NK Cell Activity ([2]; 52 mg/kg): 43.1 ± 7.3%; NK cell activity compared with the control group ([2]; 13, 26 and 52 mg/kg, P<0.01): significantly increase |
| O=P1(N(CCCl)CCCl)NCCCO1 (stereo not shown) [Cyclophosphamide, cyclophosphamide, reference compound] | – | – | – | – | – | – | – | – | – | – | – | – | – | – | – | – | – | – | – | 35.4 ± 6.6 | Body Weight (d 1) ([1]; SGC7901, 30 mg/kg i.g. 30 days): 22.63 ± 1.35 g; Body Weight (d 30) ([1]; SGC7901, 30 mg/kg i.g. 30 days): 19.85 ± 0.72 g; Inhibition Rate (tumor growth inhibition rate) ([1]; SGC7901, 30 mg/kg i.g. 30 days): 72.26%; Relative Tumor Proliferation Rate (T/C) ([1]; SGC7901, 30 mg/kg i.g. 30 days): 30.71%; Relative Tumor Volume (RTV) ([1]; SGC7901, 30 mg/kg i.g. 30 days): 4.27 ± 2.36; Tumor Volume (d 1) ([1]; SGC7901, 30 mg/kg i.g. 30 days): 252.63 ± 74.57 mm3; Tumor Volume (d 30) ([1]; SGC7901, 30 mg/kg i.g. 30 days): 865.27 ± 422.15 mm3; Tumor Weight ([1]; SGC7901, 30 mg/kg i.g. 30 days): 0.44 ± 0.41 g; NK cell activity compared with the control group ([2]; cyclophosphamide, P<0.05): significantly lower |
| CO[C@@H]1[C@@H](O[C@@H]2O[C@H](C)[C@@H](O[C@H]3C[C@@](C)(O)[C@@H](OC(=O)CC(C)C)[C@H](C)O3)[C@H](N(C)C)[C@H]2O)[C@@H](CC=O)C[C@@H](C)[C@@H](O[C@H]2CC[C@H](N(C)C)[C@@H](C)O2)/C=C/C=C/C[C@@H](C)OC(=O)C[C@H]1O [Isovaleryl spiramycin I, isovaleryl spiramycin I] | 31.56 | 61.13 | 5.37 ± 3.46 | 412.96 ± 157.62 | 2815.50 ± 770.23 | 1.07 ± 0.53 | 53.13 | 42.67 | 3.98 ± 2.78 | 258.63 ± 104.26 | 1230.76 ± 635.23 | 0.74 ± 0.52 | 70.78 | 20.23 | 3.64 ± 1.65 | 279.56 ± 156.70 | 630.69 ± 458.86 | 0.46 ± 0.36 | significantly lower | 67.0 ± 12.1 | mouse weight compared with the model group [1]: no significant changes; NK Cell Activity ([2]; 13 mg/kg): 52.5 ± 9.2%; NK Cell Activity ([2]; 52 mg/kg): 39.8 ± 6.8%; NK cell activity compared with the control group ([2]; 13, 26 and 52 mg/kg, P<0.01): significantly increase |
| CCC(=O)O[C@@H]1CC(=O)O[C@H](C)C/C=C/C=C/[C@H](O[C@H]2CC[C@H](N(C)C)[C@@H](C)O2)[C@H](C)C[C@H](CC=O)[C@H](O[C@@H]2O[C@H](C)[C@@H](O[C@H]3C[C@@](C)(O)[C@@H](OC(=O)CC(C)C)[C@H](C)O3)[C@H](N(C)C)[C@H]2O)[C@H]1OC [Isovaleryl spiramycin III, isovaleryl spiramycin III] | 21.68 | 65.48 | 5.52 ± 4.03 | 186.22 ± 80.26 | 1326.06 ± 96.10 | 1.23 ± 0.70 | 41.13 | 49.44 | 3.77 ± 6.51 | 274.12 ± 83.50 | 1473.96 ± 798.75 | 0.92 ± 0.40 | 63.34 | 30.34 | 3.66 ± 1.35 | 295.39 ± 188.69 | 974.67 ± 839.14 | 0.58 ± 0.52 | significantly lower | 46.0 ± 11.8 | mouse weight compared with the model group [1]: no significant changes; NK Cell Activity ([2]; 13 mg/kg): 48.9 ± 6.6%; NK Cell Activity ([2]; 52 mg/kg): 49.8 ± 6.2%; NK cell activity compared with the control group ([2]; 13, 26 and 52 mg/kg, P<0.01): significantly increase |
